Experimental data from article PMC11079029, “Intramolecular autoinhibition regulates the selectivity of PRPF40A tandem WW domains for proline-rich motifs” (Nature Communications, 2024).
Like-named read-outs stand apart in the source and are kept apart here.

Target: T1, PRPF40A Mut N-ExtWW12 (Homo sapiens, UniProt O75400, L125A/P123A/P126A/P127A/P78A/P79A/P81A/V80A)
T1 construct: WW12long 141–248, and N-ext-WW12 56–236; 6xHis-TEV site (N, cleaved yes); made in house; host or cells: Escherichia coli BL21(DE3)
T1 sequence (O75400 56-236 P78A/P79A/V80A/P81A/P123A/L125A/P126A/P127A limits assumed): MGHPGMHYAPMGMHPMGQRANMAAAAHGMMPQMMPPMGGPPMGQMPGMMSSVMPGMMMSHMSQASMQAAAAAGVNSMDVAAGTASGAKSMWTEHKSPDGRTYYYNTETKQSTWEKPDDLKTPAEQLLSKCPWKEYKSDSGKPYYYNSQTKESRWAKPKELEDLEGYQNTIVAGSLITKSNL
Assay: ITC of mutant N-ext-WW12 (PPVP/PALPP motifs changed to alanine) with SF1WWbs
Format: binding
Source text: While only partial backbone chemical shift assignments of this construct (69% completeness), N-ext-WW12, could be possible due to a highly repetitive sequence, a complete assignment of the methyl groups was achieved. We then performed a titration with the high-affinity peptide, SF1WWbs, by NMR. […] To further support this conclusion, we prepared a mutant version of the N-ext-WW12 construct, changing these two motifs to alanine residues, and observed clear shifting of NMR signals towards the free WW12 spectrum in the short version of the tandem. This corroborates that mainly these two proline-rich motifs govern the intramolecular interacting region (Supplementary Fig. 19).
To further confirm this analysis, we titrated SF1WWbs and the mutant version of the N-ext-WW12 construct (changing the PPVP/PALPP motifs for alanine residues).
PRPF40A isoform 1 sequences (N-ter 1–310, WW12short 141–223, WW12 141–236, WW12long 141–248, and N-ext-WW12 56–236) were amplified from a purchased DNA fragment (IDT) and cloned using NcoI and KpnI restriction sites into a pETM11 vector encoding 6xHis and TEV cleavage site as a N-terminal tag. SF1 (Pro A 410–468, Pro B 468–539, Pro C 539–594, Pro D 594–639, Pro BC 468–594, Pro CD 539–639, Pro BCD 468–639 and Pro ABCD 410–639) and SF3A1 (Middle Pro 364–413 and C-ter Pro 552–683) constructs were prepared in a similar manner using a pET24 vector with a 6xHis, GB1 and TEV cleavage site as N-terminal fusion cassette. 16-mer SF1 constructs (Table 1) and polyproline peptides (P6, P8, P10, P13, P16, P19, P22, P25, and P29) were cloned in the same pET24 vector with GB1 tag by direct ligation of purchased oligonucleotides (Eurofins). All peptide sequences contained N and C-terminal common residues to avoid boundary effects on binding: TEVsite-GAMSGS-peptide-SGSN. Mutants of PRPF40A WW12 and N-ext-WW12 constructs were prepared by site-directed mutagenesis. The truncated version of PRPF40A WW12 (141-217) was a gift from Dr. María Macías (IRB, Spain). All used oligonucleotides were purchased from Eurofins Genomics and are shown in Supplementary Table 6.
Experiments were conducted on a MicroCAl PEAQ-ITC (Malvern Instruments, UK) at 25 °C in 20 mM sodium phosphate pH 6.5 and 100 mM NaCl. PRPF40A was titrated into N-terminal GB1 tagged SF1 or polyproline constructs and vice versa with similar results. Protein concentrations in the cell were around 20–40 μM, while in the syringe ranged between 200 and 500 μM. Experiments were performed at least in duplicate with injections of 1.5 μL (0.4 μL for first point) separated by 150 s delays to recover thermal power baseline and continuous stirring in the cell (750 rpm) for correct mixing. The reference cell was filled with water in all experiments. Data were processed by removing the blank experiment (using digested GB1 fusion protein) and adjusted to one-site binding model with Malvern PEAQ-ITC Analysis software (Malvern Instruments, UK).

Sequence: PPLPPGAPPPPPPPPP [SF1WWbs]
- N (sites) (ITC as E10): 0.84 ± 0.05 sites
- DH (ITC binding enthalpy, as E10): -21 ± 2.2 kcal/mol
- Kd (µM) (ITC, 25 °C, 20 mM sodium phosphate pH 6.5, 100 mM NaCl, GB1-tagged SF1 16-mer, N-ext-WW12 with PPVP/PALPP changed to alanine, at least duplicates): comparable to the isolated WW tandem
- Kd (ITC, 25 °C, 20 mM sodium phosphate pH 6.5, 100 mM NaCl, GB1-tagged SF1 16-mer, N-ext-WW12 with PPVP/PALPP changed to alanine, at least duplicates, read-out: Kd): 2210 ± 240 nM
- Kd (ITC, individual value 1 (replicate 1), read-out: Kd Values with Nter Ext WW12 MUTANT, individual value): 2440 nM
- Kd (ITC, individual value 2 (replicate 2), read-out: Kd Values with Nter Ext WW12 MUTANT, individual value): 1980 nM
